According to article PMC8326056 (Journal of Animal Science, 2021):
“Also recorded” adds a separate entry of the source.

Experiments:
[1] = test system: bovine s.c. adipose tissue; test: Lipolysis: glycerol release, s.c. adipose tissue explants; type: cell-based, bovine (Angus cross steers); conditions: s.c. adipose tissue, 30 min
[2] = target: T1, bovine β 1-AR (Bos taurus, UniProt Q9TT96); test: cAMP induction in CHO cells transfected with bovine β 1-AR construct (LANCE cAMP kit); type: cell-based; conditions: 45 min, 5 mM theophylline, ND = cAMP not detected or insufficient for EC50
T1 construct: expressed in transfected cells; host or cells: Chinese hamster ovary (CHO) cells, pcDNA3.1+ vector
T1 sequence (Q9TT96 whole entry): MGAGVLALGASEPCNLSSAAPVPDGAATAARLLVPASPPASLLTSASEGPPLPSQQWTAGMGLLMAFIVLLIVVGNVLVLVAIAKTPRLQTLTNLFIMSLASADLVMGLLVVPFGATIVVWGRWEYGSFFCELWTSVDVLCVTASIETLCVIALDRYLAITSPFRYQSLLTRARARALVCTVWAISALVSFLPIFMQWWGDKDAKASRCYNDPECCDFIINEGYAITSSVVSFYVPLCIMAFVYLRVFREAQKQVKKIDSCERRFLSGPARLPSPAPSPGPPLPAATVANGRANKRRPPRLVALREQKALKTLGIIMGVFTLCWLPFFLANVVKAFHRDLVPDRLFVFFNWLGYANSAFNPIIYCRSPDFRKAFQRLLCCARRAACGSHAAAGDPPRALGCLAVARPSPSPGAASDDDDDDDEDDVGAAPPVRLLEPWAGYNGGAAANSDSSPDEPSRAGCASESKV
Method: (§1) Chinese Hamster Overy cells were transfected with either the bovine β 1-, β 2-, or β 3-AR constructs in pcDNA3.1+. Expression of the β-AR was confirmed by polymerase chain reaction (PCR). Thereafter, cells were grown in DMEM/Ham’s F12 media with 10% FBS and 1% penicillin/streptomycin at 37 °C under 5% CO2. Opti-plates (Perkin Elmer, Waltham, MA) were used for all experiments. For each experiment, cells were plated into 96-well tissue culture plates at 60,000 cells per well in a volume of 100 µL media. Cells were grown for 48 hr after plating prior to ligand addition and determination of cAMP.
(§2) All samples and standards were tested in duplicate for each repetition, and 4 repetitions per cell line were performed for each potential ligand tested. Controls included no treatment (media alone), 5 mM theophylline alone (an inhibitor of phosphodiesterase), 0.1 % DMSO alone, and water alone. None of the controls differed from media alone and are thus not reported. A volume of media equal to the volume of test material to be added was removed from the well just prior to stimulation. Theophylline was added in a volume of 25 µL to obtain a final concentration of 5 mM and each test molecule was delivered in 10 µL. Cells were returned to 37 °C and allowed to incubate for 45 min before media was removed and the cells lysed in 38 µL lysis buffer A. The LANCE cAMP detection kit (AD0262E) was purchased from Perkin Elmer. The LANCE assay instructions were followed for a 40 µL reaction volume with 15 µL of cell lysate. The reaction was incubated for 20 hr prior to measuring fluorescence. A standard curve was generated with increasing concentrations of cAMP, and the linear portion of the curve was used to calculate sample cAMP concentrations.

[3] = target: T2, bovine β 2-AR (Bos taurus, UniProt Q28044); test: cAMP induction in CHO cells transfected with bovine β 2-AR construct (LANCE cAMP kit); type: cell-based; conditions: 45 min, 5 mM theophylline, ND = cAMP not detected or insufficient for EC50
T2 construct: expressed in transfected cells; host or cells: Chinese hamster ovary (CHO) cells, pcDNA3.1+ vector
T2 sequence (Q28044 whole entry): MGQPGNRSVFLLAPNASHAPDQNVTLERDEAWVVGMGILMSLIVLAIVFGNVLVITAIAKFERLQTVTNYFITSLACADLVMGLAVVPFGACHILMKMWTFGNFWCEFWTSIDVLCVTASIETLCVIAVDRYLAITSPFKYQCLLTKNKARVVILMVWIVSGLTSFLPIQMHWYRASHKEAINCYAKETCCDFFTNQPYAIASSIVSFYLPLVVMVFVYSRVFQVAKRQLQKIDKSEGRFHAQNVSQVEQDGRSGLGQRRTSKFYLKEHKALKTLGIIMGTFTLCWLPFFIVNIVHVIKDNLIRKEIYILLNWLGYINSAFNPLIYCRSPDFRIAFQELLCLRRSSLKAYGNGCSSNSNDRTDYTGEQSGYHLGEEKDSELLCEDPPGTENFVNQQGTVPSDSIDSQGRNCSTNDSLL
Method: All samples and standards were tested in duplicate for each repetition, and 4 repetitions per cell line were performed for each potential ligand tested. Controls included no treatment (media alone), 5 mM theophylline alone (an inhibitor of phosphodiesterase), 0.1 % DMSO alone, and water alone. […] A volume of media equal to the volume of test material to be added was removed from the well just prior to stimulation. Theophylline was added in a volume of 25 µL to obtain a final concentration of 5 mM and each test molecule was delivered in 10 µL. […] The reaction was incubated for 20 hr prior to measuring fluorescence. […]

[4] = test system: bovine i.m. adipose tissue; test: cAMP in i.m. adipose tissue explants (Cyclic AMP XP Assay Kit); type: cell-based, bovine (Angus cross steers)
[5] = test system: bovine i.m. adipose tissue; test: Lipolysis: NEFA release, i.m. adipose tissue explants; type: cell-based, bovine (Angus cross steers); conditions: i.m. adipose tissue, 30 min
[6] = test system: bovine i.m. adipose tissue; test: cAMP in i.m. adipose tissue explants (Cyclic AMP XP Assay Kit); type: cell-based, bovine (Angus cross steers); remark: listed apart in the source
Method: (§3) Fresh s.c. adipose tissue was cut into small pieces (50 to 100 mg, actual weight recorded) and i.m. adipose tissue was dissected from the LM as described previously ([Smith and Crouse, 1984]; [Miller et al., 1988]) and weighed. The s.c. and i.m. adipose samples were incubated according to 3 different sets of experimental conditions. Experiment 1: Small pieces of s.c. and i.m. adipose tissues (50 to 100 mg; 1 to 2 mm thick; [Smith and Prior, 1981]) were preincubated in 6-well tissue culture plates in a CO2/O2 incubator (NuAire model 4750 CO2 incubator, Plymouth, MN) for 30 min at 37 °C, 5% CO2 in KHB plus 5 mM glucose, 10 mM HEPES, and 0.5 mM theophylline. […] Experiment 2: The s.c. and i.m. adipose samples were preincubated in KHB plus 5 mM glucose, 10 mM HEPES, and 0.5 mM theophylline in the presence or absence of either 10 µM L-748,337 (β 3-AR antagonist) or 50 µM PRO (β-AR pan-antagonist). […] After the 30 min preincubation, either DOB (β 1-AA) or SAL (β 2-AA) was added to the culture plate wells in a concentration-dependent manner (10^–9 to 10^–4 M) for an additional 30 min. For all experiments, there were at least 3 replicate wells per treatment condition. After a total of 1-hr incubation, the adipose samples were homogenized in 1 mL cell lysis buffer (Cell Signaling Technology, Danvers, MA) with 1 mM phenymethylsulfony fluoride, and centrifuged at 14,000 × g for 30 min to remove tissue debris. The supernatant fractions were stored at −80 °C until subsequent analyses were performed.
(§4) The concentration of cAMP was determined based on the principle of competitive binding using the Cyclic AMP XP Assay Kit according to the manufacturer’s instructions. Cytosolic extracts from the adipose explants were co-incubated at room temperature for 3 hr in 96-well plates with the HRP-linked cAMP substrate coated onto an immobilized rabbit monoclonal cAMP antibody using a horizontal orbital plate shaker. After the reaction, color development was measured at 450 nm using an Epoch microplate reader (Biotek Instruments, Winooski, VT). All samples were analyzed in duplicate. A standard curve and cAMP concentrations were calculated using GrapPad Prism 6.04 software (GraphPad Software Inc., San Diego, CA).

[7] = test system: bovine s.c. adipose tissue; test: Lipolysis: NEFA release, s.c. adipose tissue explants; type: cell-based, bovine (Angus cross steers); conditions: s.c. adipose tissue, 30 min
[8] = test system: bovine i.m. adipose tissue; test: Lipolysis: glycerol release, i.m. adipose tissue explants; type: cell-based, bovine (Angus cross steers); conditions: i.m. adipose tissue, 30 min
[9] = target: T3, bovine β 3-AR (Bos taurus, UniProt P46626); test: cAMP induction in CHO cells transfected with bovine β 3-AR construct (LANCE cAMP kit); type: cell-based; conditions: 45 min, 5 mM theophylline
T3 construct: expressed in transfected cells; host or cells: Chinese hamster ovary (CHO) cells, pcDNA3.1+ vector
T3 sequence (P46626 whole entry): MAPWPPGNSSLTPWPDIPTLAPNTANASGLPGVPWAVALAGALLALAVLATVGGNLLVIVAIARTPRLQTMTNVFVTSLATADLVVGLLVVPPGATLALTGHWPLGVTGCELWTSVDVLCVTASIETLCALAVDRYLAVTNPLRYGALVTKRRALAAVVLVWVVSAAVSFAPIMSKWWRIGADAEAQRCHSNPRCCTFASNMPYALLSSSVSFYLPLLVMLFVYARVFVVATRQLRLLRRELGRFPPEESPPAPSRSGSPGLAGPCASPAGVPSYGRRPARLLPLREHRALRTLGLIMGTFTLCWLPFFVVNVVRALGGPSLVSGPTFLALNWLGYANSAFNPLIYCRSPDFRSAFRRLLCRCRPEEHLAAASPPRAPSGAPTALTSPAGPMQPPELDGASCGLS
Method: as §1, §2

[10] = test system: bovine s.c. adipose tissue; test: cAMP in s.c. adipose tissue explants (Cyclic AMP XP Assay Kit); type: cell-based, bovine (Angus cross steers)
Method: as §3, §4

[11] = s.c., pretreatment 1 µM LUB alone or with 10 µM L-748,337, P < 0.05

Question: What does the source list for `CC(C)(Cc1ccc(Oc2ncccc2C#N)cc1)NC[C@H](O)COc1ccccc1-c1cccs1.CC(C)(Cc1ccc(Oc2ncccc2C#N)cc1)NC[C@H](O)COc1ccccc1-c1cccs1.O=C(O)/C=C/C(=O)O` [LUB, lubabegron fumarate]?
Answer: Effect on glycerol release (in words) [1]: did not affect; EC50 [2]: 190 nM; Induction of cAMP (EC50), β 2-Construct [3]: no detectible agonistic activity; Effect of LUB on cAMP production in tissue pretreated with antagonist ([4]; 30 min preincubation with 10 µM L-748,337, then LUB): depressed cAMP production; Effect of LUB on cAMP production in tissue pretreated with antagonist ([4]; 30 min preincubation with 50 µM PRO, then LUB): no effect; Effect on NEFA release (in words) [5]: did not affect; also recorded: not influenced; Effect of LUB pretreatment on cAMP with DOB or SAL ([6]; i.m. adipose explants, 1 µM LUB): without effect; Adipose tissue lipolytic sensitivity (−logEC50) to β-AR ligands, i.m. ([6]; i.m., cAMP readout, mean ± SEM, n = 12 cattle, combinations: preincubation with 1 µM LUB ± 10 µM L-748,337, N.A. = not possible to calculate EC50): not demonstrable; Effect on NEFA release (in words) [7]: did not affect; also recorded: Neither BRL-37344 nor LUB influenced cAMP or NEFA concentrations; Effect on glycerol release (in words) [8]: did not affect; EC50 [9]: 6 nM; Effect on cAMP (in words) ([10]; s.c. adipose tissue, ligand alone, 30 min): Neither BRL-37344 nor LUB influenced cAMP or NEFA concentrations; Effect of LUB on cAMP production in tissue pretreated with antagonist ([10]; s.c., 30 min preincubation with 10 µM L-748,337, then LUB 10^–9 to 10^–4 M): reduced by LUB in a dose–response manner; Effect of LUB on cAMP production in tissue pretreated with antagonist ([10]; s.c., 30 min preincubation with 50 µM PRO, then LUB 10^–9 to 10^–4 M): reduced by LUB in a dose–response manner; Adipose tissue lipolytic sensitivity (−logEC50) to β-AR ligands, s.c. ([10]; s.c., cAMP readout, mean ± SEM, n = 12 cattle, combinations: preincubation with 1 µM LUB ± 10 µM L-748,337): 7.40 ± 1.78^2; Effect on the EC50 of the SAL cAMP response ([10]; s.c., pretreatment 1 µM LUB alone or with 10 µM L-748,337, P < 0.0001): significantly increased; Effect on the maximal cAMP response to DOB [10, 11]: significantly diminished the maximal cAMP response; Effect on the maximal cAMP response to SAL [10, 11]: attenuated the maximal cAMP response; Effect on the EC50 of the cAMP response to DOB ([10]; s.c., pretreatment 1 µM LUB alone or with 10 µM L-748,337, P > 0.05): not a significant change
